Experimental data from patent US10670605B2, “Cysteine reactive probes and uses thereof” (The Scripps Research Institute, priority 2015, dated 2020).

How the values were obtained:
Experiment in all cases: Competitive isoTOP-ABPP, cell lysates
Format in all cases: binding
PDIA6 C190 (Q15084) = target: T1, PDIA6 C190 (Q15084) (Homo sapiens, UniProt Q15084); conditions: for isoTOP-ABPP reactivity ratio, Q15084_C190: 500 μm
T1 sequence (Q15084 20-440): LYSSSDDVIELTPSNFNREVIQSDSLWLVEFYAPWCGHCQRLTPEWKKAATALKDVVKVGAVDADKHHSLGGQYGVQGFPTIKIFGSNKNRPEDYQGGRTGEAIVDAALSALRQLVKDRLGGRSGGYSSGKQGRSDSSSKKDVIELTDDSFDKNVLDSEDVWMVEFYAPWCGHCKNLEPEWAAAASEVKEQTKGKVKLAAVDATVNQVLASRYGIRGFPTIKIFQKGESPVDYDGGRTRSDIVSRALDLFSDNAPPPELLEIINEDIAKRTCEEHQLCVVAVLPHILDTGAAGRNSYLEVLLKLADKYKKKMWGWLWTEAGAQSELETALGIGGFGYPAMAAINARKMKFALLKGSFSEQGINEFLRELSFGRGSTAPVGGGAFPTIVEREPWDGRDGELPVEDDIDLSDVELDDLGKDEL

XPO1 C528 (O14980) = XPO1 C528 (O14980) (Homo sapiens, UniProt O14980); conditions: for isoTOP-ABPP reactivity ratio, O14980_C528: 500 μm
UBE2L3 C86 (P68036) = UBE2L3 C86 (P68036) (Homo sapiens, UniProt P68036); conditions: for isoTOP-ABPP reactivity ratio, P68036_C86: 500 μm
STAT3 C259 (P40763) = STAT3 C259 (P40763) (Homo sapiens, UniProt P40763); conditions: for isoTOP-ABPP reactivity ratio, P40763_C259: 500 μm, in-vitro_ramos_231
GSTP1 C48 (P09211) = GSTP1 C48 (P09211) (Homo sapiens, UniProt P09211); conditions: for isoTOP-ABPP reactivity ratio, P09211_C48: 500 μm
PCK2 C306 (Q16822) = target: T2, PCK2 C306 (Q16822) (Homo sapiens, UniProt Q16822); conditions: for isoTOP-ABPP reactivity ratio, Q16822_C306: 500 μm
T2 sequence (Q16822 33-640): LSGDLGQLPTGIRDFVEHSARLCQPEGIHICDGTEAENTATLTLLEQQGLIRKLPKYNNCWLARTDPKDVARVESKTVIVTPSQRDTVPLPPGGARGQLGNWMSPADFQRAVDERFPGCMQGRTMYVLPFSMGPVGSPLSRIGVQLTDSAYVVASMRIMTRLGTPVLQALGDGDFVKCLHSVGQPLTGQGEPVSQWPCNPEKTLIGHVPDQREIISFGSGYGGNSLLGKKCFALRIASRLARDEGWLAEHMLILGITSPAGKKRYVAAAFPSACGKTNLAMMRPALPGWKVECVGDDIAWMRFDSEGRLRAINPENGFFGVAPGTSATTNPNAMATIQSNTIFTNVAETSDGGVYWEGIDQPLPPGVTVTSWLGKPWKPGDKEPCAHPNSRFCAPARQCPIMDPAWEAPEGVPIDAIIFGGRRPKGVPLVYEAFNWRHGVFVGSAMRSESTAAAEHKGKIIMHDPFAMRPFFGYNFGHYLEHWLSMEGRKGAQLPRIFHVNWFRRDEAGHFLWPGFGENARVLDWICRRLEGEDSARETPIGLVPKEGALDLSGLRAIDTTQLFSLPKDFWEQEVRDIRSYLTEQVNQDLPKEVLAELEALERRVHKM

PDIA6 C55 (Q15084) = target: T3, PDIA6 C55 (Q15084) (Homo sapiens, UniProt Q15084); conditions: for isoTOP-ABPP reactivity ratio, Q15084_C55: 500 μm
T3 sequence (Q15084 20-440): T1 sequence (Q15084 20-440)

SMARCC2 C145 (Q8TAQ2) = SMARCC2 C145 (Q8TAQ2) (Homo sapiens, UniProt Q8TAQ2); conditions: for isoTOP-ABPP reactivity ratio, Q8TAQ2_C145: 500 μm
IDH1 C269 (O75874) = IDH1 C269 (O75874) (Homo sapiens, UniProt O75874); conditions: for isoTOP-ABPP reactivity ratio, O75874_C269: 500 μm
SAMHD1 C522 (Q9Y3Z3) = SAMHD1 C522 (Q9Y3Z3) (Homo sapiens, UniProt Q9Y3Z3); conditions: for isoTOP-ABPP reactivity ratio, Q9Y3Z3_C522: 500 μm, in-vitro_ramos_231
GNB2L1 C182 (P63244) = GNB2L1 C182 (P63244) (Homo sapiens, UniProt P63244); conditions: for isoTOP-ABPP reactivity ratio, P63244_C182: 500 μm

Compound	isoTOP-ABPP reactivity ratio, Q15084_C190 (PDIA6 C190 (Q15084); in-vitro_ramos_231)	isoTOP-ABPP reactivity ratio, O14980_C528 (XPO1 C528 (O14980); in-vitro_ramos_231)	isoTOP-ABPP reactivity ratio, P68036_C86 (UBE2L3 C86 (P68036); in-vitro_ramos)	isoTOP-ABPP reactivity ratio, P68036_C86 (UBE2L3 C86 (P68036); in-vitro_ramos_231)	isoTOP-ABPP reactivity ratio, P40763_C259 (STAT3 C259 (P40763))	isoTOP-ABPP reactivity ratio, P09211_C48 (GSTP1 C48 (P09211); in-vitro_ramos)	isoTOP-ABPP reactivity ratio, P09211_C48 (GSTP1 C48 (P09211); in-vitro_ramos_231)	isoTOP-ABPP reactivity ratio, Q16822_C306 (PCK2 C306 (Q16822); in-vitro_ramos)	isoTOP-ABPP reactivity ratio, Q16822_C306 (PCK2 C306 (Q16822); in-vitro_ramos_231)	isoTOP-ABPP reactivity ratio, Q15084_C55 (PDIA6 C55 (Q15084); in-vitro_ramos)	isoTOP-ABPP reactivity ratio, Q15084_C55 (PDIA6 C55 (Q15084); in-vitro_ramos_231)	isoTOP-ABPP reactivity ratio, Q8TAQ2_C145 (SMARCC2 C145 (Q8TAQ2); in-vitro_ramos)	isoTOP-ABPP reactivity ratio, Q8TAQ2_C145 (SMARCC2 C145 (Q8TAQ2); in-vitro_ramos_231)	isoTOP-ABPP reactivity ratio, O75874_C269 (IDH1 C269 (O75874); in-vitro_ramos_231)	isoTOP-ABPP reactivity ratio, Q9Y3Z3_C522 (SAMHD1 C522 (Q9Y3Z3))	also measured
O=C(CCl)N1CCN(CC(=O)N2CCOCC2)CC1 [compound 29]	–	–	–	–	–	–	–	–	–	–	–	–	–	–	–	isoTOP-ABPP ratio (reactivity profile), Q15084_C190 (PDIA6 C190 (Q15084); 500 μm in-vitro ramos_231): 1.2; isoTOP-ABPP ratio (reactivity profile), O14980_C528 (XPO1 C528 (O14980); 500 μm in-vitro ramos_231): 1.0; isoTOP-ABPP ratio (reactivity profile), P68036_C86 (UBE2L3 C86 (P68036); 500 μm in-vitro ramos): 1.5; isoTOP-ABPP ratio (reactivity profile), P68036_C86 (UBE2L3 C86 (P68036); 500 μm in-vitro ramos_231): 0.9; isoTOP-ABPP ratio (reactivity profile), P40763_C259 (STAT3 C259 (P40763); 500 μm in-vitro ramos_231): 1.5; isoTOP-ABPP ratio (reactivity profile), P09211_C48 (GSTP1 C48 (P09211); 500 μm in-vitro ramos): 0.4; isoTOP-ABPP ratio (reactivity profile), P09211_C48 (GSTP1 C48 (P09211); 500 μm in-vitro ramos_231): 1.0; isoTOP-ABPP ratio (reactivity profile), Q16822_C306 (PCK2 C306 (Q16822); 500 μm in-vitro ramos): 0.5; isoTOP-ABPP ratio (reactivity profile), Q16822_C306 (PCK2 C306 (Q16822); 500 μm in-vitro ramos_231): 1.1; isoTOP-ABPP ratio (reactivity profile), Q15084_C55 (PDIA6 C55 (Q15084); 500 μm in-vitro ramos): 1.3; isoTOP-ABPP ratio (reactivity profile), Q15084_C55 (PDIA6 C55 (Q15084); 500 μm in-vitro ramos_231): 1.0; isoTOP-ABPP ratio (reactivity profile), Q8TAQ2_C145 (SMARCC2 C145 (Q8TAQ2); 500 μm in-vitro ramos_231): 1.0; isoTOP-ABPP ratio (reactivity profile), O75874_C269 (IDH1 C269 (O75874); 500 μm in-vitro ramos_231): 0.8; isoTOP-ABPP ratio (reactivity profile), Q9Y3Z3_C522 (SAMHD1 C522 (Q9Y3Z3); 500 μm in-vitro ramos_231): 1.5; isoTOP-ABPP ratio (reactivity profile), P63244_C182 (GNB2L1 C182 (P63244); 500 μm in-vitro ramos): 1.2; isoTOP-ABPP ratio (reactivity profile), P63244_C182 (GNB2L1 C182 (P63244); 500 μm in-vitro ramos_231): 1.3
C=CC(=O)N(Cc1cccnc1)c1cc(C(F)(F)F)cc(C(F)(F)F)c1 [compound 31]	1.3	5.2	1.3	1.7	1.7	1.3	2.0	1.2	1.9	1.1	1.2	0.9	1.1	0.4	1.5	isoTOP-ABPP reactivity ratio, Q15084_C190 (PDIA6 C190 (Q15084); in-vitro_ramos): 1.2; isoTOP-ABPP reactivity ratio, O14980_C528 (XPO1 C528 (O14980); in-vitro_ramos): 3.2; isoTOP-ABPP reactivity ratio, O75874_C269 (IDH1 C269 (O75874); in-vitro_ramos): 0.7; isoTOP-ABPP reactivity ratio, P63244_C182 (GNB2L1 C182 (P63244); in-vitro_ramos_231): 1.3
Cc1ccc(C=C(C#N)C(=O)NCCN2CCOCC2)cc1 [compound 41]	1.0	0.6	7.9	9.8	0.9	0.9	1.3	1.0	1.2	0.8	0.9	2.8	1.8	0.8	0.9	isoTOP-ABPP reactivity ratio, P63244_C182 (GNB2L1 C182 (P63244); in-vitro_ramos): 4.7
